Test results: patent US20240398812A1 (Caraway Therapeutics, Inc., priority 2021, published 2024)
One block for each compound: values may come before it.

What was measured:
[1] = tested on: TRPMLs; conditions: high concentrations needed; HEK293 cells expressing plasma-membrane TRPML1; cited from earlier work
[2] = biological target: human TRPML1 (Homo sapiens, UniProt Q9GZU1); assay: Fluorescent TRPML1 assay (Fluo4-AM calcium fluorescence, HEK-293 Trex cells); type: cell-based
Summary of the method: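 Agonist EC50 from non-linear regression of percent activity versus on-plate controls, calcium signal read at 480/540 nm. Compounds spanned 6 nM–20 μM final in triplicate. Cells: doxycycline-induced HEK-293 Trex with cell-surface human TRPML1 mutant, Fluo4-AM loaded, in Ringer's containing 10 mM calcium.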

[3] = biological target: T1, TRPML2 (Homo sapiens, UniProt Q8IZK6); assay: Fluorescent TRPML2 assay (as for TRPML1); type: cell-based
T1 construct: expressed in transfected cells
T1 sequence (Q8IZK6 1-566): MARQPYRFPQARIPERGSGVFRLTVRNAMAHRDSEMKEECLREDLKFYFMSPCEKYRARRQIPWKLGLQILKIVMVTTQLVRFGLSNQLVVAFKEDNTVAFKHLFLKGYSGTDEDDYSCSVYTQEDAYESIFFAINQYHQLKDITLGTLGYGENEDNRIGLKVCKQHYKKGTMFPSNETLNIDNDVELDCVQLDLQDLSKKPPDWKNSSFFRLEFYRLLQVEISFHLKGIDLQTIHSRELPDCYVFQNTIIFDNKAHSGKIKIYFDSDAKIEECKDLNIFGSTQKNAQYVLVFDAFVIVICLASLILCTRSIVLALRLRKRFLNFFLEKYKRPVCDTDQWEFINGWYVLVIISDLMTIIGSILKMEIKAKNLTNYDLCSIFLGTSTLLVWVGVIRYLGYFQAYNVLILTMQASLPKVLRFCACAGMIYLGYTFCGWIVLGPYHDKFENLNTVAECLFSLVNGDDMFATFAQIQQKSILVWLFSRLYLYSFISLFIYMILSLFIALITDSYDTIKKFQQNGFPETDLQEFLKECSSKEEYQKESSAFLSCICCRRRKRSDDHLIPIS
Summary of the method: (§1)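 EC50 came from non-linear regression of percent activity, set against on-plate positive and negative controls, using Fluo4 fluorescence (ex 480, em 540 nm). Compounds ran in triplicate from 6 nM to 20 µM final in half-log steps. Doxycycline-induced (0.5 ug/mL) HEK-293 Trex cells expressing surface-directed mutant channel were in 10 mM calcium Ringer's.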

[4] = biological target: T2, TRPML3 (Homo sapiens, UniProt Q8TDD5); assay: Fluorescent TRPML3 assay (as for TRPML1); type: cell-based
T2 construct: expressed in transfected cells
T2 sequence (Q8TDD5 1-553): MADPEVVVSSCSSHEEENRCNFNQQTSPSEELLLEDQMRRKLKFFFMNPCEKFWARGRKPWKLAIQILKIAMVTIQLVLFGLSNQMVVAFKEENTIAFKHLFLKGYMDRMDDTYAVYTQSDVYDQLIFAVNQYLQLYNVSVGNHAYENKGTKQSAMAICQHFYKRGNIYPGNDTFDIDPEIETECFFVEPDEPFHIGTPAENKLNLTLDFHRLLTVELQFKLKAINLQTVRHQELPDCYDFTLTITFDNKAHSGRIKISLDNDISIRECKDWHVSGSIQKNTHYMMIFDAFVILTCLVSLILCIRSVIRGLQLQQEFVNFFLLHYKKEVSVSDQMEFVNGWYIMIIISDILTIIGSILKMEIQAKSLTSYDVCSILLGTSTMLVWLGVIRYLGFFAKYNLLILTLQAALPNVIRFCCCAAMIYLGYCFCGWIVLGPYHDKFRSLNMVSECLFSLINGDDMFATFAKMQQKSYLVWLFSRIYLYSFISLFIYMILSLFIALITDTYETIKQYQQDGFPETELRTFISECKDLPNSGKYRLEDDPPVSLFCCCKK
Summary of the method: as §1

Chain of human TRPML1 (Q9GZU1 whole entry L15A/L16A/L577A/L578A, form open): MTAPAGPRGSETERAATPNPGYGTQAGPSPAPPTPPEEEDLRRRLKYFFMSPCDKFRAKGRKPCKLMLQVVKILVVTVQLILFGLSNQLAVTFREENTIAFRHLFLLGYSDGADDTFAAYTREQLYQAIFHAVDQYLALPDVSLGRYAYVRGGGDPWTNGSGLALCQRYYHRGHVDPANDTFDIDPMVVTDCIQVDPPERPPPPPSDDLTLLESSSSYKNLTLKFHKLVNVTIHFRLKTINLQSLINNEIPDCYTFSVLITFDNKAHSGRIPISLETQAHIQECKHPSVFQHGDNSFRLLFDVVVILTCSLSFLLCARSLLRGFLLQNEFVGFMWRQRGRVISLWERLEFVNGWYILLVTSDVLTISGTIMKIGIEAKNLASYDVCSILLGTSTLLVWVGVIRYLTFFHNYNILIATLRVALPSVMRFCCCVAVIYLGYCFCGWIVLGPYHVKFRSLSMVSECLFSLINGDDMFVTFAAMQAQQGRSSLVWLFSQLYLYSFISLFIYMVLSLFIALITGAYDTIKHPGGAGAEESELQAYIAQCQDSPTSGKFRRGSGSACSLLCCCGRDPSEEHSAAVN

SMILES: CC1CC(C)(C)N(C(=O)CN2C(=O)c3ccccc3C2=O)c2ccccc21 (stereo not shown) [ML-SA1]
- concentration needed to effectively activate TRPMLs [1]: ~10 µM

- EC50 ([2]; Table 3, compounds 201-283): 100 to 500 nM
- EC50 ([3]; Table 3, compounds 201-283): 500 to 2000 nM
- EC50 ([4]; Table 3, compounds 201-283): < 100 nM
SMILES: C[C@@H]1CN(c2ncnc3c2c(C2CCC2)cn3-c2cccc(C(F)(F)F)c2)[C@@H](C)CN1C(=O)C(C)(C)C(F)(F)F [Compound 263, 1-((2R,5S)-4-(5-cyclobutyl-7-(3-(trifluoromethyl)phenyl)-7H-pyrrolo[2,3-d]pyrimidin-4-yl)-2,5-dimethylpiperazin-1-yl)-3,3,3-trifluoro-2,2-dimethylpropan-1-one]

- EC50 ([2]; Table 3, compounds 101-177): < 100 nM
- EC50 ([3]; Table 3, compounds 101-177): 100 to 500 nM
- EC50 ([4]; Table 3, compounds 101-177): < 100 nM
SMILES: C[C@@H]1CN(c2ncnc3c2c(-c2ccccc2F)cn3-c2cc(C#N)ccn2)[C@@H](C)CN1C(=O)C(C)(C)O [Compound 158, 2-(5-(2-fluorophenyl)-4-((2S,5R)-4-(2-hydroxy-2-methylpropanoyl)-2,5-dimethylpiperazin-1-yl)-7H-pyrrolo[2,3-d]pyrimidin-7-yl)isonicotinonitrile]
